Test results: patent US4425356A, “Lankacidin derivatives used in swine husbandry” (Takeda Chemical Industries, Ltd., priority 1980, dated 1984)
Read-outs that look alike come from different tables or passages of the source.

What was measured:
[1] = growth of pigs, 5-month continuous dietary administration, Test Examples 10-11; assay type: in vivo, Landrace pigs; details: for Body weight at end / Body weight at feed exchange / Body weight gain for starter feed period / Body weight gain for whole period / Feed conversion for starter feed period / Feed conversion for whole period / Feed intake for starter feed period / Feed intake for whole period: mean per head
Protocol: Effects of compound (I) on the growth of pigs under the conditions in which swine dysentery was absent were examined. Thus, 40 one-month-old Landrace pigs (5 litters) were used in groups each consisting of 8 (4 males and 4 females). Lankacidin C was added in concentrations of 0 (control), 1, 2.5, 5 and 10 ppm to antibacterial agent-free starter feed for the period from the start of the test through the age of 3 months and to the feed for testing pigs for performance of meat production (also free of antibacterial agents) for the period from the age of 4 months to the age of 6 months (end). Thus, in each group, dietary lankacidin C was administered continuously for 5 months.
The data are each the mean value per head. Different alphabetic letters o
Fourty-eight 35-day-old Landrace pigs (6 litters) were used in 6 groups each consisting of 8 (4 males and 4 females). Lankacidin A was added in concentrations of 0 (control), 1, 2.5, 5, 10 and 20 ppm to antibacterial agent-free starter feed for the period from the start of the test through the age of 3 months and to the feed for testing pigs for performance of meat production (also free of antibacterial agents) for the period from the age of 4 months to the age of 6 months (end).

[2] = tested on: Treponema hyodysenteriae 78/A strain; assay: therapeutic administration in pigs showing clinical signs of swine dysentery, Test Examples 8-9; assay type: in vivo; details: for Condition of feces: Table 9, individual pig
Protocol: This test was conducted under the conditions of so-called therapeutic administration. […] The method of infection was the same as in Test Example 5. […] Simultaneously with showing of the signs, the pigs were provided with a feed containing 50 ppm of lankacidin C. […] After 2 days, the viable count for the pathogen in feces was below the detection limit (10^2 CFU/g).
The condition of feces was rated at one of the following four classes:
.circle. normal; loose; diarrheal; .circleincircle. mucous and bloody
count is below the detection limit (10^2 CFU/g).
The symbol * indicates those days on which the feed containing 50 ppm of
lankacidin C was given.
Lankacidins were tested for therapeutic effects in swine dysentery under therapeutic conditions in the same manner as in Test Example 8. The effects were judged based on the condition of feces.
The condition of feces was rated at one of the following four classes;
The symbol * indicates the days on which the feed containing 50 ppm of th

[3] = acute toxicity tests with mice; details: mouse, in vivo
Description: The toxicity of compound (I) in animals is very low.

[4] = tested on: Treponema hyodysenteriae 78/A strain; assay: efficacy against swine dysentery under experimental infection conditions in pigs (drug in feed), Test Examples 5-7; assay type: in vivo, Landrace pigs
Protocol: Lankacidin C was tested for efficacy against swine dysentery under experimental infection conditions. Thus, twelve 6-week-old Landrace pigs (4 per group) were used. The test drug was admixed to a concentration of 100 ppm with the domestically formulated starter feed for young pigs without antibiotics. The animals were provided with the ration ad libitum. Infection of the pigs was effected by direct intragastrical administration to the SPF pigs of an inoculum prepared by preliminary anaerobic cultivation of the Treponema hyodysenteriae 78/A strain on a 5% horse blood added agar plate, mashing together with the culture medium and admixing with 5% mucin added phosphate buffer. Colonic contents and mucosa were collected from pigs which developed typical signs of swine dysentery, and diluted two-fold with 5% mucin added phosphate buffer. The dilution was used as the final inoculum, and 100 ml of the dilution was directly injected into the stomach of test pigs at the age of 7 weeks (fasted for 24 hours before infection). The pigs were fed for 21 days following infection.
The data are each the mean value per head for the 21day period from
infection to autopsy. Different alphabetic letters on the same line
indicate that there is a significant difference between the data to which
they are attached (P <0.05).
Lankacidin C was tested at concentrations in feed of 100 ppm and lower by the same method as in Test Example 5, with carbadox, a commonly used anti-swine-dysentery agent, for comparison.
The anti-swine-dysentery effects of 10 ppm each of lankacidin A and lankacidin C 14-propionate were examined by the procedure of Test Example 6.

[5] = 10 ppm in feed, 21-day test period
[6] = 10 ppm in feed, 21 day period, mean per head

## CC(=O)OC1C=CC(C)=CCC(O)C=CC(C)=CC(NC(=O)C(C)=O)C2(C)C(=O)OC(C1)C(C)C2=O (centres unmarked) [Lankacidin A, lankacidin A]
[1]; 1 ppm in feed
  Body weight at end: 111.6 kg
  Body weight at feed exchange: 34.0 kg
  Body weight gain for starter feed period: 24.8 kg
  Body weight gain for whole period: 102.4 kg
  Feed conversion for starter feed period: 1.94
  Feed conversion for whole period: 2.88
  Feed intake for starter feed period: 48.1 kg
  Feed intake for whole period: 294.9 kg
[1]; 2.5 ppm in feed
  Body weight at end: 113.5 kg
  Body weight at feed exchange: 34.6 kg
  Body weight gain for starter feed period: 25.4 kg
  Body weight gain for whole period: 104.4 kg
  Feed conversion for starter feed period: 1.87
  Feed conversion for whole period: 2.83
  Feed intake for starter feed period: 47.6 kg
  Feed intake for whole period: 295.3 kg
[1]; 5 ppm in feed
  Body weight at end: 118.3 kg
  Body weight at feed exchange: 36.1 kg
  Body weight gain for starter feed period: 26.9 kg
  Body weight gain for whole period: 109.1 kg
  Feed conversion for starter feed period: 1.77
  Feed conversion for whole period: 2.79
  Feed intake for starter feed period: 47.6 kg
  Feed intake for whole period: 304.3 kg
[1]; 10 ppm in feed
  Body weight at end: 120.5 kg
  Body weight at feed exchange: 36.7 kg
  Body weight gain for starter feed period: 27.6 kg
  Body weight gain for whole period: 111.4 kg
  Feed conversion for starter feed period: 1.73
  Feed conversion for whole period: 2.74
  Feed intake for starter feed period: 47.7 kg
  Feed intake for whole period: 305.2 kg
[1]; 20 ppm in feed
  Body weight at end: 123.4 kg
  Body weight at feed exchange: 37.4 kg
  Body weight gain for starter feed period: 28.8 kg
  Body weight gain for whole period: 114.2 kg
  Feed conversion for starter feed period: 1.71
  Feed conversion for whole period: 2.72
  Feed intake for starter feed period: 48.2 kg
  Feed intake for whole period: 310.6 kg
[1]; dietary, 5 months
  growth and feed efficiency (in words): Swine growth was promoted proportionally to the increase of level of addition of lankacidin A, and the feed efficiency was improved accordingly
[2]; 50 ppm in feed
  therapeutic effect in swine dysentery (in words): therapeutically effective
[2]; 50 ppm in feed days 0-6, day 7
  Condition of feces: .circle.
[2]; 50 ppm in feed days 0-6, day 8
  Condition of feces: .circle.
[2]; 50 ppm in feed days 0-6, day 9
  Condition of feces: .circle.
[2]; 50 ppm in feed days 0-6, day 10
  Condition of feces: .circle.
[2]; 50 ppm in feed days 0-6, day 11
  Condition of feces: .circle.
[2]; 50 ppm in feed days 0-6, day 12
  Condition of feces: .circle.
[2]; 50 ppm in feed days 0-6, day 13
  Condition of feces: .circle.
[2]; 50 ppm in feed days 0-6, day 14
  Condition of feces: .circle.
[2]; 50 ppm in feed days 0-6, day 15
  Condition of feces: .circle.
[2]; 50 ppm in feed days 0-6, day 16
  Condition of feces: .circle.
[2]; 50 ppm in feed days 0-6, day 17
  Condition of feces: .circle.
[2]; 50 ppm in feed days 0-6, day 18
  Condition of feces: .circle.
[2]; 50 ppm in feed days 0-6, day 19
  Condition of feces: .circle.
[2]; 50 ppm in feed days 0-6, day 20
  Condition of feces: .circle.
[2]; 50 ppm in feed days 0-6, day 21
  Condition of feces: .circle.
[2]; 50 ppm in feed, day 0 after manifestation of signs
  Condition of feces: .circleincircle.
[2]; 50 ppm in feed, day 1
  Condition of feces: .circle.
[2]; 50 ppm in feed, day 2
  Condition of feces: .circle.
[2]; 50 ppm in feed, day 3
  Condition of feces: .circle.
[2]; 50 ppm in feed, day 4
  Condition of feces: .circle.
[2]; 50 ppm in feed, day 5
  Condition of feces: .circle.
[2]; 50 ppm in feed, day 6
  Condition of feces: .circle.
[3]; ip, intraperitoneal, read-out: intraperitoneal LD50
  LD50: 8000 to 10000 mg/kg
[3]; oral, read-out: oral LD50
  LD50: > 10000 mg/kg
[4]; 10 ppm in feed
  Number of pigs from which the pathogen was detected, in colonic mucosa: 0
  Number of pigs from which the pathogen was detected, in feces: 0
  Number of pigs showing colonic lesions: 0
[4]; [5]
  Number of days on which diarrhea was observed: 0 days
  Number of days on which mucous bloody stool was observed: 0 days
  Number of pigs showing signs of infection/number of pigs used: 0/4
[4]; [6]
  Body weight gain: 567 grams/day
  Feed conversion: 1.76
  Feed intake: 21.0 kg
[4]; 10 ppm in feed, mean per head
  Body weight at the time of completion of test: 22.9 kg
[4]; pig, in vivo
  effect against swine dysentery (in words): distinctly effective against swine dysentery
